Counter-ions that a name gives are not always drawn. Like-named read-outs stand apart in the source and are kept apart here.
Assays:
[1] = target: T1, BIR3 domain of human XIAP (residues 252-350) (Homo sapiens, UniProt P98170); assay: XIAP in vitro competitive displacement binding assay (fluorescence polarization); details: 1 h, percent inhibition (PI) at 0.04 μM; read-out: Xiap IC50 or PI μM
T1 construct: BIR3 domain of human XIAP (residues 252-350); His-tag (cleaved yes); made in house; host or cells: Escherichia coli

[2] = tested on: EVSA-T (human breast carcinoma); assay: Anti-proliferative activity, Alamar Blue assay, EVSA-T; format: cell-based
Experimental: Anti-Proliferative Activity
The method is based on the ability of viable cells to reduce resazurin to its fluorescent product resorufin. For each proliferation assay cells are plated onto 96 well plates and allowed to recover for 16 hours prior to the addition of inhibitor compounds (in 0.1% DMSO v/v) for a further 72 hours. […] The anti-proliferative activities of compounds of the invention can be determined by measuring the ability of the compounds to inhibit growth in 3 cancer cell lines: • EVSA-T (human breast carcinoma) DSMZ cat. no.

[3] = Homo sapiens, EVSA-T, read-out: EC50 in EVSA-T cell line assays
[4] = Homo sapiens, EVSA-T, 72 h, EVSA-T cell line, 72 hours, Alamar Blue; read-out: EVSA-T prolif
[5] = Homo sapiens, EVSA-T; read-out: EC50 in EVSA-T cell line assays

T1 sequence (P98170 252-350): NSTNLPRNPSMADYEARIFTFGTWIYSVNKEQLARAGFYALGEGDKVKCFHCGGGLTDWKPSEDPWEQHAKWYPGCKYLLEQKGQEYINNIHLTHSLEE

SMILES	inhibition at 0.04 µM [1] [%]	EVSA-T prolif μM ([2]; EVSA-T cell line, % at 0.001 μM) [% at]	EC50 [2, 3] [nM]	EC50 [2, 4] [nM]	EC50 [2, 5] [nM]
C[C@@H]1CN(CC(=O)N2CC(C)(C)c3cnc(Cc4ccc(F)cc4)cc32)[C@@H](CN2Cc3ncccc3C2=O)CN1 [Example 20, 6-{[(2R,5R)-1-(2-{6-[(4-Fluorophenyl)methyl]-3,3-dimethyl-1H,2H,3H-pyrrolo[3,2-c]pyridin-1-yl}-2-oxoethyl)-5-methylpiperazin-2-yl]methyl}-5H,6H,7H-pyrrolo[3,4-b]pyridin-5-one, dihydrochloride]	76	92	< 1000	–	–
C[C@@H]1CN(CC(=O)N2CC(C)(C)c3ncc(Cc4ccc(F)cc4)cc32)[C@@H](CN2CCCCC2=O)CN1 [Example 21, 1-{[(2R,5R)-1-(2-{6-[(4-Fluorophenyl)methyl]-3,3-dimethyl-1H,2H,3H-pyrrolo[3,2-b]pyridin-1-yl}-2-oxoethyl)-5-methylpiperazin-2-yl]methyl}piperidin-2-one, dihydrochloride]	44	–	< 1000	2.1	–
CC1=C(C)C(=O)N(C[C@H]2CN[C@H](C)CN2CC(=O)N2CC(C)(C)c3ncc(Cc4ccc(F)cc4F)cc32)C1 [Example 24, 1-{[(2R,5R)-1-(2-{6-[(2,4-Difluorophenyl)methyl]-3,3-dimethyl-1H,2H,3H-pyrrolo[3,2-b]pyridin-1-yl}-2-oxoethyl)-5-methylpiperazin-2-yl]methyl}-3,4-dimethyl-2,5-dihydro-1H-pyrrol-2-one, dihydrochloride]	72	–	–	1.7	< 1000
CCCC(F)(F)c1cc2c(cn1)C(C)(C)CN2C(=O)CN1C[C@@H](C)NC[C@@H]1CN1C[C@H](C)OCC1=O [Example 26, (6S)-4-{[(2R,5R)-1-{2-[6-(1,1-Difluorobutyl)-3,3-dimethyl-1H,2H,3H-pyrrolo[3,2-c]pyridin-1-yl]-2-oxoethyl}-5-methylpiperazin-2-yl]methyl}-6-methylmorpholin-3-one, dihydrochloride]	60	–	–	27	< 1000
CCCC(F)(F)c1cc2c(cn1)C(C)(C)CN2C(=O)CN1C[C@@H](C)NC[C@@H]1CN1Cc2ccccc2C1=O [Example 27, 2-{[(2R,5R)-1-{2-[6-(1,1-Difluorobutyl)-3,3-dimethyl-1H,2H,3H-pyrrolo[3,2-c]pyridin-1-yl]-2-oxoethyl}-5-methylpiperazin-2-yl]methyl}-2,3-dihydro-1H-isoindol-1-one, dihydrochloride]	75	–	–	5.2	< 1000
CCCC(F)(F)c1cc2c(cn1)C(C)(C)CN2C(=O)CN1C[C@@H](C)NC[C@@H]1CN1CC(C)=C(C)C1=O [Example 28, 1-{[(2R,5R)-1-{2-[6-(1,1-Difluorobutyl)-3,3-dimethyl-1H,2H,3H-pyrrolo[3,2-c]pyridin-1-yl]-2-oxoethyl}-5-methylpiperazin-2-yl]methyl}-3,4-dimethyl-2,5-dihydro-1H-pyrrol-2-one, dihydrochloride]	67	–	–	10	< 1000
C[C@@H]1CN(CC(=O)N2CC(C)(C)c3ncc(Cc4ccc(F)cc4F)cc32)[C@@H](CN2CC(C)(C)CC2=O)CN1 [Example 30, 1-{[(2R,5R)-1-(2-{6-[(2,4-Difluorophenyl)methyl]-3,3-dimethyl-1H,2H,3H-pyrrolo[3,2-b]pyridin-1-yl}-2-oxoethyl)-5-methylpiperazin-2-yl]methyl}-4,4-dimethylpyrrolidin-2-one dihydrochloride]	70	–	< 1000	1.1	–
C[C@@H]1CN(CC(=O)N2CC(C)(C)c3cnc(Cc4ccc(F)cc4F)cc32)[C@@H](CN2CC(C)(C)CC2=O)CN1 [Example 32, 1-{[(2R,5R)-1-(2-{6-[(2,4-Difluorophenyl)methyl]-3,3-dimethyl-1H,2H,3H-pyrrolo[3,2-c]pyridin-1-yl}-2-oxoethyl)-5-methylpiperazin-2-yl]methyl}-4,4-dimethylpyrrolidin-2-one dihydrochloride]	71	–	–	1.3	< 1000
CC1=C(C)C(=O)N(C[C@H]2CN[C@H](C)CN2CC(=O)N2CC(C)(C)c3cnc(Cc4ccc(F)cc4F)cc32)C1 [Example 33, 1-{[(2R,5R)-1-(2-{6-[(2,4-Difluorophenyl)methyl]-3,3-dimethyl-1H,2H,3H-pyrrolo[3,2-c]pyridin-1-yl}-2-oxoethyl)-5-methylpiperazin-2-yl]methyl}-3,4-dimethyl-2,5-dihydro-1H-pyrrol-2-one dihydrochloride]	81	–	–	1.1	< 1000
CC1=C(C)C(=O)N(C[C@H]2CN[C@H](C)CN2CC(=O)N2CC(C)(C)c3cnc(Cc4ccc(F)cc4)cc32)C1 [Example 36, 1-{[(2R,5R)-1-(2-{6-[(4-Fluorophenyl)methyl]-3,3-dimethyl-1H,2H,3H-pyrrolo[3,2-c]pyridin-1-yl}-2-oxoethyl)-5-methylpiperazin-2-yl]methyl}-3,4-dimethyl-2,5-dihydro-1H-pyrrol-2-one dihydrochloride]	74	–	–	1.7	< 1000
CCCC(F)(F)c1cc2c(cn1)C(C)(C)CN2C(=O)CN1C[C@@H](C)NC[C@@H]1CN1CC(C)(C)CC1=O [Example 38, 1-{[(2R,5R-1-{2-[6-(1,1-Difluorobutyl)-3,3-dimethyl-1H,2H,3H-pyrrolo[3,2-c]pyridin-1-yl]-2-oxoethyl}-5-methylpiperazin-2-yl]methyl}-4,4-dimethylpyrrolidin-2-one dihydrochloride]	76	–	–	13	< 1000
CC1=C(C)C(=O)N(C[C@H]2CN[C@H](C)CN2CC(=O)N2CC(C)(C)c3nnc(Cc4ccc(F)cc4F)cc32)C1 [Example 50, 1-{[(2R,5R)-1-(2-{3-[(2,4-Difluorophenyl)methyl]-7,7-dimethyl-5H,6H,7H-pyrrolo[3,2-c]pyridazin-5-yl}-2-oxoethyl)-5-methylpiperazin-2-yl]methyl}-3,4-dimethyl-2,5-dihydro-1H-pyrrol-2-one L-lactate]	66	–	–	1.2	< 1000
CC1=C(C)C(=O)N(C[C@H]2CN[C@H](C)CN2CC(=O)N2CC(C)(C)c3nnc(Cc4ccc(F)cc4)cc32)C1 [Example 51, 1-{[(2R,5R)-1-(2-{3-[(4-Fluorophenyl)methyl]-7,7-dimethyl-5H,6H,7H-pyrrolo[3,2-c]pyridazin-5-yl}-2-oxoethyl)-5-methylpiperazin-2-yl]methyl}-3,4-dimethyl-2,5-dihydro-1H-pyrrol-2-one L-lactate]	48	–	–	4.9	< 1000
CCCC(F)(F)c1cc2c(nn1)C(C)(C)CN2C(=O)CN1C[C@@H](C)NC[C@@H]1CN1Cc2ccccc2C1=O [Example 59, 2-{[(2R,5R)-1-{2-[3-(1,1-Difluorobutyl)-7,7-dimethyl-5H,6H,7H-pyrrolo[3,2-c]pyridazin-5-yl]-2-oxoethyl}-5-methylpiperazin-2-yl]methyl}-2,3-dihydro-1H-isoindol-1-one dihydrochloride]	68	–	–	1.6	< 1000
C[C@@H]1CN(CC(=O)N2CC(C)(C)c3cnc(Cc4ccc(F)cc4)cc32)[C@@H](CN2Cc3ccccc3C2=O)CN1 [Example 60, 2-{[(2R,5R)-1-(2-{6-[(4-Fluorophenyl)methyl]-3,3-dimethyl-1H,2H,3H-pyrrolo[3,2-c]pyridin-1-yl}-2-oxoethyl)-5-methylpiperazin-2-yl]methyl}-2,3-dihydro-1H-isoindol-1-one dihydrochloride]	94	–	–	0.29	< 1000
CCCC(F)(F)c1cc2c(cn1)C(C)(C)CN2C(=O)CN1C[C@@H](C)NC[C@@H]1CN1Cc2ncccc2C1=O [Example 68, 6-{[(2R,5R)-1-{2-[6-(1,1-Difluorobutyl)-3,3-dimethyl-1H,2H,3H-pyrrolo[3,2-c]pyridin-1-yl]-2-oxoethyl}-5-methylpiperazin-2-yl]methyl}-5H,6H,7H-pyrrolo[3,4-b]pyridin-5-one dihydrochloride]	72	–	–	2.4	< 1000
C[C@@H]1CN(CC(=O)N2CC(C)(C)c3cnc(Cc4ccc(F)cc4F)cc32)[C@@H](CN2C[C@@H](C)OCC2=O)CN1 [Example 69, (6R)-4-{[(2R,5R)-1-(2-{6-[(2,4-Difluorophenyl)methyl]-3,3-dimethyl-1H,2H,3H-pyrrolo[3,2-c]pyridin-1-yl}-2-oxoethyl)-5-methylpiperazin-2-yl]methyl}-6-methylmorpholin-3-one dihydrochloride]	68	–	–	2.6	< 1000
C[C@@H]1CC(=O)N(C[C@H]2CN[C@H](C)CN2CC(=O)N2CC(C)(C)c3ncc(Cc4ccc(F)cc4F)cc32)C1 [Example 70, (4R)-1-{[(2R,5R)-1-(2-{6-[(2,4-Difluorophenyl)methyl]-3,3-dimethyl-1H,2H,3H-pyrrolo[3,2-b]pyridin-1-yl}-2-oxoethyl)-5-methylpiperazin-2-yl]methyl}-4-methylpyrrolidin-2-one dihydrochloride]	55	–	–	3.2	< 1000
C[C@@H]1CC(=O)N(C[C@H]2CN[C@H](C)CN2CC(=O)N2CC(C)(C)c3cnc(Cc4ccc(F)cc4F)cc32)C1 [Example 71, (4R)-1-{[(2R,5R)-1-(2-{6-[(2,4-Difluorophenyl)methyl]-3,3-dimethyl-1H,2H,3H-pyrrolo[3,2-c]pyridin-1-yl}-2-oxoethyl)-5-methylpiperazin-2-yl]methyl}-4-methylpyrrolidin-2-one dihydrochloride]	64	–	–	2.5	< 1000

— patent publication US9617283B2, “Bicyclic heterocycle compounds and their uses in therapy” (ASTEX THERAPEUTICS LIMITED, priority 2012, dated 2017)
